Laboratory results published in US8492559B2, “Substituted indole compounds” (Gruenenthal GmbH, priority 2009, dated 2013).

target: T1, B1R receptor of the rat (rB1R) (Rattus norvegicus, UniProt P97583); test: Functional investigation on the bradykinin 1 receptor (B1R), FLIPR Ca2+ assay, rB1R cells; type: cell-based; settings: 10 μM test substance; CHO K1 cells with rat B1R; agonist Des-Arg9 bradykinin; % of maximum achievable inhibition
T1 construct: expressed in transfected cells; host or cells: CHO K1 cells
T1 sequence (P97583 1-337): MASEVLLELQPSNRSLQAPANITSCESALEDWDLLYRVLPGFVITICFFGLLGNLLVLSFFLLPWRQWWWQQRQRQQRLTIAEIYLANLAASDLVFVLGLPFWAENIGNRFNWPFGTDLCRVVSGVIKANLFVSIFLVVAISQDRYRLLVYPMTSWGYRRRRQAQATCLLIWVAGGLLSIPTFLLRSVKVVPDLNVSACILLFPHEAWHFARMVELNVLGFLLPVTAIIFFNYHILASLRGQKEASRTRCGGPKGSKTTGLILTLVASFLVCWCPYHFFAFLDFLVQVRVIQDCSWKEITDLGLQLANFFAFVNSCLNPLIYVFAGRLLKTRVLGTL
Description: The indication in % activation is based on the Ca^2+ signal after addition of Lys-Des-[…] bradykinin (0.5 nM) or Des-[…] bradykinin (100 nM). Antagonists lead to a suppression of the Ca^2+ influx following administration of the agonist. The % inhibition in comparison with the maximum achievable inhibition is indicated. […] According to this assay, the Ca^2+ inflow through the channel is quantified with the aid of a Ca^2+-sensitive dye (Fluo-4 type, Molecular Probes Europe BV, Leiden, Netherlands) in a fluorescent imaging plate reader (FLIPR, Molecular Devices, Sunnyvale, USA). […] For functional investigations these cells are plated-out onto black 96-well plates with a clear base (BD Biosciences, Heidelberg, Germany or Greiner, Frickenhausen, Germany) in a density of 20,000-35,000 cells/well. Overnight the cells are incubated at 37° C. and 5% CO2 in culture medium (hB1R cells: Ham's Nutrient Mixture F12, Gibco Invitrogen GmbH, Karlsruhe, Germany or DMEM, Sigma-Aldrich, Taufkirchen, Germany; rB1R cells: D-MEM/F12, Gibco Invitrogen, Karlsruhe, Germany) with 10 vol. % FBS (foetal bovine serum, Gibco Invitrogen GmbH, Karlsruhe, Germany or PAN Biotech GmbH, Aidenbach, Germany). On the following day the cells are loaded with 2.13 μM Fluo-4 (Molecular Probes Europe BV, Leiden, Netherlands) in HBSS buffer (Hank's buffered saline solution, Gibco Invitrogen GmbH, Karlsruhe, Germany) with 2.5 mM probenecid (Sigma-Aldrich, Taufkirchen, Germany) and 10 mM HEPES (Sigma-Aldrich, Taufkirchen, Germany) for 60 min at 37° C. […] Sigma-Aldrich, Taufkirchen, Germany), 5.6 mM glucose and 0.05% gelatine (Merck KGaA, Darmstadt, Germany) is added. After a further incubation of 20 minutes at room temperature, the plates are inserted into the FLIPR for Ca^2+ measurement. Alternatively they are washed with buffer A (15 mM HEPES, 80 mM NaCl, 5 mM KCl, 1.2 mM CaCl2, 0.7 mM MgSO4, 2 g/l glucose, 2.5 mM probenecid) and loaded with buffer A with added 2.5 μM Fluo-4 and 0.025% Pluronic F127 (Sigma-Aldrich, Taufkirchen, Germany). The cells are then washed twice with buffer A and incubated for 30 minutes with buffer A, which additionally contains 0.05% BSA and 0.05% gelatine, at room temperature and then used for Ca^2+ measurement in the FLIPR. The Ca^2+-dependent fluorescence is measured here before and after addition of substances (λex=488 nm, λem=540 nm). The quantification is performed by measuring the highest fluorescence intensity (FC, fluorescence counts) over time. The FLIPR protocol comprises two additions of substance. […] Lys-Des-[…] bradykinin>=50 nM; rB1R: […] Antagonists lead to a suppression of the Ca^2+ inflow. The % inhibition in comparison with the maximum achievable inhibition is calculated. The substances are added in varying concentrations in order to determine the IC50 value. Double or triple determinations (n=2 or n=3) are performed and these are repeated in at least one further independent experiment (N>=2).

B1R antagonism, rat [10 μM] % inhibition [%] | Compound
100 | COc1cc(C)c(S(=O)(=O)Nc2cccc3ccn(CC(=O)N4CCN(CC5CCN(C)CC5)CC4)c23)c(C)c1 [G_CC-7, 4-Methoxy-2,6-dimethyl-N-[1-[2-[4-[(1-methyl-piperdin-4-yl)-methyl]-piperazin-1-yl]-2-oxo-ethyl]-1H-indol-7-yl]-benzenesulfonic acid amide]

same assay, conditions: 10 μM test substance; CHO K1 cells with rat B1R; agonist Des-Arg9 bradykinin; % of maximum achievable inhibition; 10 µM

B1R antagonism, rat [10 μM] % inhibition [%] | Compound
90 | COc1cc(C)c(S(=O)(=O)Nc2cccc3ccn(CC(=O)N4CCC(Oc5ccncc5)CC4)c23)c(C)c1 [Compound G-03, 4-Methoxy-2,6-dimethyl-N-[1-[2-oxo-2-(4-pyridin-4-yloxy-piperidin-1-yl)-ethyl]-1H-indol-7-yl]-benzenesulfonic acid amide]

same assay, conditions: CHO-K1, 10 μM test substance; CHO K1 cells with rat B1R; agonist Des-Arg9 bradykinin; % of maximum achievable inhibition; read-out: B1R antagonism, rat [10 μM] % inhibition

inhibition at 10 µM [%] | Compound
58 | COc1cc(C)c(S(=O)(=O)Nc2cccc3ccn(CC(=O)N4CCC5(CC4)CCN(c4ccc(F)cc4)C5=O)c23)c(C)c1 [G_CC-12, N-[1-[2-[3-(4-Fluorophenyl)-4-oxo-3,8-diazaspiro[4.5]decan-8-yl]-2-oxo-ethyl]-1H-indol-7-yl]-4-methoxy-2,6-dimethyl-benzenesulfonic acid amide]
103 | COc1cc(C)c(S(=O)(=O)Nc2ccc3ccn(CCC(=O)N(C)CCN4CCC(c5cccc(F)c5)(N5CCN(C)CC5)CC4)c3c2)c(C)c1 [G_CC-81, N-[2-[4-(3-Fluorophenyl)-4-(4-methyl-piperazin-1-yl)-piperidin-1-yl]-ethyl]-3-[6-[[(4-methoxy-2,6-dimethyl-phenyl)sulfonyl]amino]-1H-indol-1-yl]-N-methyl-propionamide]
84 | COc1cc(C)c(S(=O)(=O)Nc2ccc3ccn(CC(=O)N4CCC(CNC(=O)c5ccncc5)(N5CCN(C)CC5)CC4)c3c2)c(C)c1 [G_CC-108, N-[[1-[2-[6-[[(4-Methoxy-2,6-dimethyl-phenyl)sulfonyl]amino]-1H-indol-1-yl]-acetyl]-4-(4-methyl-piperazin-1-yl)-piperidin-4-yl]-methyl]-pyridine-4-carboxylic acid amide]
59 | COc1cc(C)c(S(=O)(=O)Nc2cccc3ccn(CCC(=O)N4CCC(c5ccccc5)(N(C)C)CC4)c23)c(C)c1 [G_CC-48, N-[1-[3-(4-Dimethylamino-4-phenyl-piperidin-1-yl)-3-oxo-propyl]-1H-indol-7-yl]-4-methoxy-2,6-dimethyl-benzenesulfonic acid amide]
94 | COc1cc(C)c(S(=O)(=O)Nc2cccc3ccn(CCC(=O)N(C)CCCN4CCC(c5cccs5)(N(C)C)CC4)c23)c(C)c1 [G_CC-46, N-[3-(4-Dimethylamino-4-thiophen-2-yl-piperidin-1-yl)-propyl]-3-[7-[[(4-methoxy-2,6-dimethyl-phenyl)sulfonyl]amino]-1H-indol-1-yl]-N-methyl-propionamide]
58 | COc1cc(C)c(S(=O)(=O)Nc2cccc3ccn(CC(=O)N4CC5CC4CN5Cc4ccncc4)c23)c(C)c1 (stereo not shown) [G_CC-34, 4-Methoxy-2,6-dimethyl-N-[1-[2-oxo-2-[2-(pyridin-4-yl-methyl)-2,5-diazabicyclo[2.2.1]heptan-5-yl]-ethyl]-1H-indol-7-yl]-benzenesulfonic acid amide]
56 | Cc1cc(S(=O)(=O)Nc2cccc3ccn(CC(=O)NCCN4CCC(c5cccs5)(N(C)C)CC4)c23)c(C)cc1Cl [G_CC-27, 2-[7-[[(4-Chloro-2,5-dimethyl-phenyl)sulfonyl]amino]-1H-indol-1-yl]-N-[2-(4-dimethylamino-4-thiophen-2-yl-piperidin-1-yl)-ethyl]-acetamide]
67 | O=C(CCn1ccc2cccc(N3Cc4cccc(Cl)c4C3=O)c21)NCC1CCN(c2ccncc2)CC1 [G_CC-123, 3-[7-(4-Chloro-3-oxo-1,2-dihydro-isoindol-2-yl)-1H-indol-1-yl]-N-[(1-pyridin-4-yl-piperidin-4-yl)-methyl]-propionamide]
79 | Cc1cc(S(=O)(=O)Nc2cccc3ccn(CCC(=O)N4CCC(N5CCN(C)CC5)CC4)c23)c(C)cc1Cl [G_CC-61, 4-Chloro-2,5-dimethyl-N-[1-[3-[4-(4-methyl-piperazin-1-yl)-piperidin-1-yl]-3-oxo-propyl]-1H-indol-7-yl]-benzenesulfonic acid amide]
59 | COc1cc(C)c(S(=O)(=O)Nc2cccc3ccn(CCC(=O)N4CCC(O)(c5ccccn5)CC4)c23)c(C)c1 [G_CC-45, N-[1-[3-(4-Hydroxy-4-pyridin-2-yl-piperidin-1-yl)-3-oxo-propyl]-1H-indol-7-yl]-4-methoxy-2,6-dimethyl-benzenesulfonic acid amide]
67 | CN(CCCN1CCC(c2ccccc2)(N(C)C)CC1)C(=O)Cn1ccc2cccc(NS(=O)(=O)c3cccc4ccccc34)c21 [G_CC-16, N-[3-(4-Dimethylamino-4-phenyl-piperidin-1-yl)-propyl]-N-methyl-2-[7-[(naphthalen-1-ylsulfonyl)amino]-1H-indol-1-yl]-acetamide]
93 | COc1cc(C)c(S(=O)(=O)Nc2ccc3ccn(CC(=O)N(C)CCN4CCC(c5cccc(F)c5)(N5CCN(C)CC5)CC4)c3c2)c(C)c1 [G_CC-99, N-[2-[4-(3-Fluorophenyl)-4-(4-methyl-piperazin-1-yl)-piperidin-1-yl]-ethyl]-2-[6-[[(4-methoxy-2,6-dimethyl-phenyl)sulfonyl]amino]-1H-indol-1-yl]-N-methyl-acetamide]
81 | O=C(Cn1ccc2ccc(N3Cc4cccc(Cl)c4C3=O)cc21)NCC1CCN(c2ccncc2)CC1 [G_CC-111, 2-[6-(4-Chloro-3-oxo-1,2-dihydro-isoindol-2-yl)-1H-indol-1-yl]-N-[(1-pyridin-4-yl-piperidin-4-yl)-methyl]-acetamide]
89 | COc1cc(C)c(S(=O)(=O)Nc2cccc3ccn(CC(=O)N(C)CCN4CCC(c5cccc(F)c5)(N5CCN(C)CC5)CC4)c23)c(C)c1 [G_CC-102, N-[2-[4-(3-Fluorophenyl)-4-(4-methyl-piperazin-1-yl)-piperidin-1-yl]-ethyl]-2-[7-[[(4-methoxy-2,6-dimethyl-phenyl)sulfonyl]amino]-1H-indol-1-yl]-N-methyl-acetamide]

Compound | inhibition at 10 µM [%]
COc1cc(C)c(S(=O)(=O)Nc2ccc3ccn(CC(=O)N4CCC5(CCN(Cc6ccccc6)C5)C4)c3c2)c(C)c1 (stereo not shown) [G_CC-10, N-[1-[2-(3-Benzyl-3,7-diazaspiro[4.4]nonan-7-yl)-2-oxo-ethyl]-1H-indol-6-yl]-4-methoxy-2,6-dimethyl-benzenesulfonic acid amide] | 69
COc1cc(C)c(S(=O)(=O)Nc2cccc3ccn(CC(=O)NC4CCC(c5ccccc5)(N5CCC5)CC4)c23)c(C)c1 (stereo not shown) [G_CC-17, N-[4-(Azetidin-1-yl)-4-phenyl-cyclohexyl]-2-[7-[[(4-methoxy-2,6-dimethyl-phenyl)sulfonyl]amino]-1H-indol-1-yl]-acetamide] | 52
COc1cc(C)c(S(=O)(=O)Nc2ccc3ccn(CC(=O)N(C)CCC4CCC(c5ccccc5)(N(C)C)CC4)c3c2)c(C)c1 (stereo not shown) [G_CC-95, N-[2-(4-Dimethylamino-4-phenyl-cyclohexyl)-ethyl]-2-[6-[[(4-methoxy-2,6-dimethyl-phenyl)sulfonyl]amino]-1H-indol-1-yl]-N-methyl-acetamide] | 96
